For series [1], the target named is T1, α-Chymotrypsin (Bos taurus, UniProt P00766).
T1 construct: purchased Sigma-Aldrich (USA) C4129; host or cells: bovine pancreas
Kind of series: α-Chymotrypsin inhibition assay (SPpNA substrate, absorbance at 410 nm). Type of series: biochemical, bovine. The following applies: α-chymotrypsin, substrate SPpNA 0.4 mM, pH 7.6, 30° C., n = 3. The procedure:
(§1) α-Chymotrypsin (bovine pancreas, C4129) and N-succinyl-L-phenylalanine-p-nitroaniline (S2628) were purchased from Sigma-Aldrich (USA). Chymostatin (152845) from MP Biomedicals, LLC, USA, Tris(hydroxymethyl)aminomethane from Scharlau Chemie Barcelona, Spain and all other reagents were obtained from E. Merck and were of analytical grade. All other solvents and reagents were of analytical grade and used directly without purification.
This was performed in 50 mM Tris-HCl buffer pH 7.6 with 10 mM CaCl2. α-Chymotrypsin (12 units/mL prepared in 50 mM Tris-HCl buffer) with the different concentration of test compounds prepared in DMSO. It was then incubated at 30° C. for 25 min. The reaction was started by the addition of the substrate, N-succinyl-L-phenylalanine-p-nitroanilide (final concentration of 0.4 mM, prepared in the buffer as mentioned above). The change in absorbance due to released p-nitroaniline was continuously monitored at 410 nm (Choudhary et al., 2011). All the experiments were in a final volume of 200 μL in triplicate, and data was taken using a micro-plate reader (SpectraMax M2, Molecular Devices, Calif., USA).
The results were processed by using SoftMax Pro 4.8 then analyzed by MS Excel software. The % of inhibition based upon initial velocity and calculated as: […]
IC50 (Inhibition of enzymatic hydrolysis of the substrate SPpNA by 50%) value was calculated using EZ-Fit software (Perellela Scientific, Inc., Amherst, Mars, USA).

Series [2] is described as follows: Cell proliferation inhibition (cytotoxicity) MTT assay for 3T3 cell line. The series is classed as cell-based, Mouse. The following applies: 3T3 mouse fibroblast cells; 3T3 mouse fibroblasts, MTT, 72 hrs, n = 3; read-out: 3T3 cell-line GI50 ± SEM. The procedure:
(§2) It was evaluated by using the MTT (3-[4,5-dimethylthiazole-2-yl]-2,5-diphenyl-tetrazolium bromide) assay (Mosmann, 1983). The 3T3 cell-lines (Mouse Fibroblasts) were cultured in Dulbecco's Modified Eagle's Medium, which was later supplemented with 5% of bovine serum, 100 IU/mL of penicillin, and 100 μg/mL of streptomycin, in 5% CO2 incubator at 37° C. Exponentially growing cell, 1×10^4 cells/well incorporated into each well of 96-well plates. Then, fresh the medium containing different concentrations of compounds were loaded in each well after 24 hours. Again, after 72 hrs, fresh the medium containing 0.5 mg/mL MTT were loaded in each well, and incubated further for 4 hrs. Subsequently, the media containing MTT was replaced by 100 μL of DMSO for 15 min, and then the absorbance was taken at 570 nm.

In the next series the test system is 3T3 cell line. The description is as above. Type of series: cell-based, Mouse. The procedure:
as §2

The target in series [3] is T1, α-Chymotrypsin. The experiment in a line: α-Chymotrypsin inhibition kinetic study (Lineweaver-Burk, Dixon, Hanes-Woolf plots). The following applies: for Type of inhibition: from Lineweaver-Burk, Dixon and Hanes-Woolf plots; for Ki: substrate SPpNA 0.4-3.2 mM, n = 3, read-out: Ki ± SEM. The series is classed as biochemical, bovine.
Text: as §1
The change in concentration of the substrate/product (rate of reaction) was measured as optical density per minute (OD/min). This OD/min was obtained by incorporating different concentrations of compounds over substrate (SPpNA) concentrations between 0.4 mM and 3.2 mM in micro-plate reader. Reciprocal of OD/min against the reciprocal of the substrate concentration, defined as Lineweaver-Burk plot (and its secondary plot; slope vs compound concentration); the Dixon plot (and its secondary plot; slope vs reciprocal of compound concentration) and then Hanes-Woolf plot were plotted (Lineweaver et al., 1934; Dixon, 1953; Segel, 1993) Graphs were plotted using GraFit 4 (Erithacus Software Limited, Surrey, UK) and GraphPad Prism 5 (GraphPad Software, California, USA). The types of inhibition were determined by the graphical views of Dixon plots, Lineweaver-Burk plots and their secondary plots as well as Hanes-Woolf plot. The Ki values, obtained directly from the software, also were cross-checked and tallied in these graphs. Final concentration of DMSO was maintained 5.5%.

On to `S=C(Nc1cccc(Cl)c1)Nc1ccc(Cl)cc1Cl` [Compound 8, 1-(3-Chlorophenyl)-3-(2,4-dichlorophenyl) thiourea], for which the midpoint of inhibition against α-Chymotrypsin [1], the IC50, lay at 42.4 ± 0.3 µM. Further, the GI50 at 72 h in series [2] was found to be 21.4 ± 0.1 µM. Also, the “growth inhibition for 3T3 cell lines (in words)” value (shortened to “growth inhibition”) in the series on 3T3 cell line is on record as “showed growth inhibition”. In addition, at α-Chymotrypsin [3], the Type of inhibition result is “Mixed” and the Ki was 31.8 ± 3.4 µM.
On the same counts, the results for `COc1ccccc1NC(=S)Nc1cccc(Cl)c1` [Compound 5, 1-(3-Chlorophenyl)-3-(2-methoxyphenyl) thiourea] are 26.3 ± 4.9 µM, 10.7 ± 1.2 µM, “showed growth inhibition”, “Non- Competitive” and 25.3 ± 4.6 µM.
As to `Cc1ccc(NC(=S)Nc2cccc(Cl)c2)cc1` [Compound 9, 1-(3-Chlorophenyl)-3-p-tolylthiourea], the IC50 against α-Chymotrypsin [1] is 46.2 ± 0.5 µM. Also, the GI50 at 72 h in series [2] worked out at 2.3 ± 0.4 µM. The “growth inhibition” value in the series on 3T3 cell line is “showed growth inhibition”. Besides, at α-Chymotrypsin [3], the Type of inhibition result is listed as “Non- Competitive” and the Ki is 39.6 ± 1 µM.
At α-Chymotrypsin [1], `Cc1ccc(Cl)cc1NC(=S)Nc1cccc(Cl)c1` [Compound 7, 1-(5-Chloro-2-methylphenyl)-3-(3-chlorophenyl) thiourea] registered an IC50 of 40.4 ± 1.2 µM. The concentration for 50% growth inhibition (GI50) at 72 h in series [2] worked out at 24.6 ± 0.2 µM. Moreover, in the series with 3T3 cell line, the “growth inhibition” value was “showed growth inhibition”. Also, at α-Chymotrypsin [3], the Type of inhibition entry is “Competitive” and the Ki turned out to be 25.8 ± 0.9 µM.
`Fc1ccc(NC(=S)Nc2ccccc2)c(F)c1` [Compound 22, 1-(2,4-Difluorophenyl)-3-phenylthiourea] gave an IC50 at α-Chymotrypsin [1] of 193 ± 1 µM. Besides, in series [2], the GI50 at 72 h is greater than 30 µM. For the same compound, on α-Chymotrypsin [3], the Type of inhibition entry was “Competitive” and the Ki stood at 142 ± 5 µM.
Regarding `S=C(Nc1cccnc1)Nc1cccc(Cl)c1` [Compound 19, 1-(3-Chlorophenyl)-3-(pyridin-3-yl) thiourea], on α-Chymotrypsin [1], the IC50 was found to be 199 µM. Besides, in series [2], the GI50 at 72 h was greater than 30 µM. On α-Chymotrypsin [3], the Type of inhibition result was “Competitive” and the Ki is 166 ± 5.9 µM.

The values above are taken from patent US20150080580A1, “THIOUREA DERIVATIVES AS a-CHYMOTRYPSIN INHIBITORS” (priority 2013, published 2015).
